The subject of this assay is CFA induced hypersensitivity in rat. In words: CFA induced hypersensitivity in rat assessed using weight bearing method. In kind it is in vivo. The following applies: 10 mg/kg, 24 hours post CFA, 1, 2 and 4 hours post treatment. An excerpt: Intraplantar injection of Complete Freunds adjuvant (CFA) causes an inflammatory reaction which induces hypersensitivity and oedema, and mimics some aspects of clinical inflammatory pain. These effects can be investigated using equipment to measure weight bearing and plethysmometer.
Naive rats distribute their body weight equally between the two hind paws. However, when the injected (left) hind paw is inflamed and/or painful, the weight is re-distributed so that less weight is put on the affected paw (decrease in weight bearing on injured paw). Weight bearing through each hind limb was measured using a rat incapacitance tester (Linton Instruments, UK).
Rats were placed in the incapacitance tester with the hind paws on separate sensors and the average force exerted by both hind limbs was recorded over 4 seconds.
Base line weight bearing and paw volume readings were taken and hypersensitivity was induced via injection of CFA (Baseline weight bearing and paw volume recordings were taken prior to induction of insult. Inflammatory hypersensitivity was induced by intraplantar injection of CFA (100 μL of 1 mg/mL solution) intraplantar to the rats left hind paw.
Animals (Male, Sprague Dawley Rats (Charles River, UK), 212-260 g) were ranked and randomised to treatment groups according to the weight bearing CFA window in a Latin square design. […]

Regarding `COc1ccc2c(c1)c(CC(=O)O)c(C)n2C(=O)c1ccc(Cl)cc1` [Indomethacin, reference compound], the “hypersensitivity response (weight bearing)” value is on record as “significantly inhibited”.
